Measurements published in patent publication US10195297B2, “Iron garnet nanoparticles for cancer radiotherapy and chemotherapy” (priority 2014, dated 2019).

Key:
[1] = system: human NSCLC A549 cells; assay: MTS cytotoxicity studies of 166HoIG, 166HoIG-Pt and free Pt drugs (Example 6); assay type: cell-based; conditions: 24 h
Experimental: Cytotoxicity studies. The studies involving human NSCLC A549 cells were carried out under standard conditions in a humidified, 37° C., 5% CO2 atmosphere incubator. The culture medium used for A549 was Roswell Park Memorial Institute with 10% fetal calf serum (FCS), 100 μg/mL streptomycin, 100 IU/mL penicillin and 2.0 mM L-glutamine (RPMI).
Suspensions of each type of neutron-activated nanoparticle were prepared in RPMI. Two control groups, RPMI alone and RPMI with cells not exposed to ^166Ho nanoparticles, were included in each 96-well plate. At least four replicates were done for each concentration and each control group. The cells were seeded at 5×10^4 cells/mL (100 μL/well) in 96-well plates and allowed to grow for 24 h after which time the RPMI was removed and replaced with 100 μL of RPMI that contained blank ^166HoIG or ^166HoIG-Pt. After an exposure time of 24 h on a microplate shaker in the incubator, the RPMI was removed and replaced with 100 μL of fresh RPMI. […] After 1 h incubation with the MTS solution, the absorbance was read at 490 nm using a Synergy™ H1 hybrid multi-mode microplate reader. The percent survival of cells treated by each concentration of nanoparticles was calculated using the following equation:
[formula] where Ad is the absorbance of cells treated with nanoparticles, Am is the absorbance of medium alone and Ac is the absorbance of cells without treatment.

[2] = system: human NSCLC A549 cells; assay: MTS cytotoxicity of neutron-activated nanoparticles and free Pt drugs (Example 2); assay type: cell-based; conditions: 24 h
Experimental: The radioactivity of nanoparticles prior to administration to cells was determined using a 2470 WIZARD 2 automatic gamma counter. Studies involving human NSCLC A549 cells were carried out under standard conditions in a humidified, 37° C., 5% CO2 atmosphere incubator. The culture medium used for A549 cells was minimum essential medium to which had been added 10% fetal calf serum, 100 μg/mL streptomycin, 100 IU/mL penicillin and 2.0 mM L-glutamine. Cells were seeded at 5×10^4 cells/ml (100 μL/well) in 96-well plates and allowed to grow for 24 h after which time the medium was removed and replaced with medium and drug. After an exposure time of 24 h, the medium with drug was removed and replaced with 100 μL of fresh medium. To each well, 20 μL of CellTiter 96® AQueous One Solution Cell Proliferation Assay (MTS) solution was added. After 2 h incubation with the MTS solution, the absorbance was read at 490 nm using a Synergy™ H1 hybrid multi-mode microplate reader. The percent survival of cells treated by each concentration of drug was calculated using the following equation:
[formula] where Ad is the absorbance of cells treated with drug, Am is the absorbance of medium alone and Ac is the absorbance of cells without treatment. The % survival data was fit to exponential regression and IC50 values calculated.

| Compound | synergy with radiation [1] | synergy with the radioactive Ho [2] |
| --- | --- | --- |
| N.N.O=C([O-])C1(C(=O)[O-])CCC1.[Pt+2] [Free carboplatin, carboplatin] | did not act synergistically with radiation | – |
| N.N.[Cl][Pt][Cl] [cis, cisplatin] | – | act synergistically |
